Experimental data as given in patent US20060069132A1, “Azolecarboxamide herbicides” (priority 2004, published 2006).

Experiments:
barnyardgrass [1] = test: Test B pre-/postemergence herbicide test; format: in vivo, Echinochloa crus-galli
Method in brief: (§1)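 Evaluation is visual, comparing treated with control plants on a scale where 0 means no effect and 100 means full control. Treatments were preemergence, or postemergence on seedlings 2–18 cm tall, and held 13–15 days in the greenhouse.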

cocklebur = test: Test B pre-/postemergence herbicide test; format: in vivo, Xanthium strumarium
Method in brief: as §1

corn = test: Test B pre-/postemergence herbicide test; format: in vivo, Zea mays
Method in brief: (§2)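 Visual rating, 0 (no effect) to 100 (complete control), versus untreated controls after 13–15 d in greenhouse. Pre- and postemergence applications (postemergence plants 2–18 cm, 1–4 leaves); flooded paddy arm at 2-leaf stage. Compounds in non-phytotoxic solvent plus surfactant.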

giant foxtail = test: Test B pre-/postemergence herbicide test; format: in vivo, Setaria faberi
Method in brief: as §2

lambsquarters = test: Test B pre-/postemergence herbicide test; format: in vivo, Chenopodium album
Method in brief: as §2

morningglory = test: Test B pre-/postemergence herbicide test; format: in vivo, Ipomoea coccinea
Method in brief: as §1

pigweed = test: Test B pre-/postemergence herbicide test; format: in vivo, Amaranthus retroflexus
Method in brief: as §2

velvetleaf = test: Test B pre-/postemergence herbicide test; format: in vivo, Abutilon theophrasti
Method in brief: as §2

blackgrass = test: Test B postemergence herbicide test; format: in vivo, Alopecurus myosuroides; details: scale 0 (no effect) to 100 (complete control)
Method in brief: (§3)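 Each value is a visual 0–100 response rating taken against controls 13 to 15 days after treatment in the greenhouse. Plants received formulated chemical postemergence at the 1- to 4-leaf stage or, in flooded paddy, at the 2-leaf stage.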

wheat = test: Test B postemergence herbicide test; format: in vivo, Triticum aestivum; design: key to Wheat plant response rating: 0 = no effect, 100 = complete control; details: scale 0 (no effect) to 100 (complete control)
Method in brief: (§4)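 Scale 0–100: zero equals no visible effect, 100 complete control, judged by eye relative to controls. Timing: 13 to 15 days in greenhouse post-treatment. Growth stage at spraying: two leaves (paddy) or one to four leaves, 2–18 cm (postemergence).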

wild oat = test: Test B postemergence herbicide test; format: in vivo, Avena fatua; details: scale 0 (no effect) to 100 (complete control)
Method in brief: as §4

rice = test: Test B flooded paddy test; format: in vivo, Oryza sativa; details: 1000 g ai/ha, visual rating, scale 0 to 100 (0 no effect, 100 complete control), 13 to 15 days
Method in brief: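 Read-out: visual comparison with controls, scored 0 to 100, where 100 means complete control and 0 no effect. Formulated chemicals were applied postemergence to plants 2–18 cm tall (1- to 4-leaf), or to flooded-paddy plants at the 2-leaf stage, then held 13 to 15 days under glass.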

[2] = system: small flower umbrella sedge; test: Test B flooded paddy test; format: in vivo, Cyperus difformis; details: 1000 g ai/ha, visual rating, scale 0 to 100 (0 no effect, 100 complete control), 13 to 15 days
Method in brief: as §3

ducksalad = test: Test B flooded paddy test; format: in vivo, Heteranthera limosa; details: 1000 g ai/ha, visual rating, scale 0 to 100 (0 no effect, 100 complete control), 13 to 15 days
Method in brief: as §3

barnyardgrass [3] = test: Test B flooded paddy test; format: in vivo, Echinochloa crus-galli; details: 1000 g ai/ha, visual rating, scale 0 to 100 (0 no effect, 100 complete control), 13 to 15 days
Method in brief: as §3

[4] = Postemergence, 500 g ai/ha, visual rating after 13 to 15 days, scale 0 (no effect) to 100 (complete control)
[5] = Preemergence, 500 g ai/ha, scale 0 to 100
[6] = postemergence, 125 g ai/ha, visual rating, scale 0 (no effect) to 100 (complete control)
[7] = preemergence, 125 g ai/ha, 0 to 100 scale, 0 is no effect, 100 is complete control
[8] = Postemergence, 500 g ai/ha, visual rating after 13 to 15 days
[9] = postemergence, 125 g ai/ha, visual rating

CCN1CCc2c(NC(=O)c3cc(C(C)(C)C)nn3CC)cccc2C1=O [Compound 63]
0: Plant response rating, Cocklebur (cocklebur; [7]) | Plant response rating, Corn (corn; [7]) | Plant response rating, Morningglory (morningglory; [7])
20: Plant response rating, Barnyardgrass (barnyardgrass [1]; [4]) | Plant response rating, Corn (corn; [4]) | Corn plant response rating (corn; [6]) | Plant response rating, Foxtail, Giant (giant foxtail; [4]) | Plant response rating, Morningglory (morningglory; [4]) | Morningglory plant response rating (morningglory; [6]) | Plant response rating, Blackgrass (blackgrass; [8]) | Oat, Wild plant response rating (wild oat; [9])
10: Barnyardgrass plant response rating (barnyardgrass [1]; [6]) | Cocklebur plant response rating (cocklebur; [5]) | Foxtail, Giant plant response rating (giant foxtail; [6]) | Plant response rating, Velvetleaf (velvetleaf; [7]) | Blackgrass plant response rating (blackgrass; [9]) | Plant response rating, Wheat (wheat; [8]) | Wheat plant response rating (wheat; [9])
100: Barnyardgrass plant response rating (barnyardgrass [1]; [5]) | Foxtail, Giant plant response rating (giant foxtail; [5]) | Plant response rating, Pigweed (pigweed; [7]) | Sedge, Umbrella plant response rating [2]
80: Plant response rating, Lambsquarters (lambsquarters; [4]) | Lambsquarters plant response rating (lambsquarters; [6]) | Barnyardgrass plant response rating (barnyardgrass [3])
90: Plant response rating, Lambsquarters (lambsquarters; [7]) | Ducksalad plant response rating (ducksalad)
60: Plant response rating, Barnyardgrass (barnyardgrass [1]; [7]) | Cocklebur plant response rating (cocklebur; [6]) | Plant response rating, Foxtail, Giant (giant foxtail; [7]) | Rice plant response rating (rice)
40: Pigweed plant response rating (pigweed; [6]) | Velvetleaf plant response rating (velvetleaf; [6])
30: Corn plant response rating (corn; [5]) | Plant response rating, Oat, Wild (wild oat; [8])
50: Plant response rating, Velvetleaf (velvetleaf; [4])
70: Plant response rating, Cocklebur (cocklebur; [4]) | Plant response rating, Pigweed (pigweed; [4])
